Like-named read-outs stand apart in the source and are kept apart here.
How the values were obtained:
[1] = PAMPA BBB (parallel artificial membrane permeability assay); format: in vitro ADME; details: pH 7.4, 37 °C, donor 20 µg/mL, read-out: Permeability Coefficients (Pe × 10−6) ± SD
Protocol: BBB permeability of the compounds was investigated by using a PAMPA method (parallel artificial membrane permeability assay). The PAMPA system consisted of a 96-well microfilter plate and a 96-well filter plate and was divided into two chambers: a donor at the bottom and an acceptor at the top, separated by a 120-μm-thick microfilter disc coated with BBB lipid solution (Pion, Inc.). The solutions of each compound were prepared in dimethyl sulfoxide (DMSO) at 4 mg/mL concentration and then diluted with Prisma buffer (pH = 7.4) to obtain the donor drug solution with the final nominal concentration of 20 µg/mL. The donor solutions were placed on the donor plate. Acceptor plate contained Brain Sink Buffer (BSB). The plates were put together and incubated at 37 °C for 180 min in a humidity-saturated atmosphere. The concentrations of the compounds were determined with a UV-reader (Multiskan GO, Thermo Scientific) at 254 nm in the donor and acceptor compartments.
The permeability values (Pe) were calculated by using the following equation:(1) −ln(1−CA/Cequilibrium)/S×(1/VD+1/VA)×t where VD: donor volume, VA: acceptor volume, Cequilibrium: equilibrium concentration Cequilibrium=CD×VD+ CA×VA/VD+VA, CD: donor concentration, CA: acceptor concentration, S: membrane area, and t: incubation time (in seconds). High BBB permeation (CNS+) was expected for compounds with Pe > 5.19, whereas low BBB permeation (CNS-) was expected for compounds with Pe < 2.07 [21].

[2] = test system: mice; set-up: method as in PMID 23291122, PMID 25226229, PMID 25090118; unit not given here; details: chimney test, cited from earlier work
[3] = test system: maximal electroshock-induced seizure (MES); set-up: method as in PMID 23291122, PMID 25226229, PMID 25090118; details: mice, cited from earlier work
[4] = test system: 6 Hz psychomotor seizure model; set-up: method as in PMID 32253957; details: mice, cited from earlier work
[5] = molecular target: batrachotoxin-binding site on voltage-gated sodium channels; set-up: method as in PMID 25226229, PMID 30594731, PMID 28824309; details: read-out: Affinity towards Batrachotoxin-Binding Site on Sodium Channels IC50 ± SEM; cited from earlier work
[6] = test system: mice; set-up: method as in PMID 23291122, PMID 25226229, PMID 25090118; details: rotarod test (†), the values are: TD50, cited from earlier work

SMILES | Papp at 180 min, 20 µg/mL [1] [×10⁻⁶ cm/s] | Neurotoxicity in Chimney or Rotarod (†) Tests in Mice ([2]; pretreatment time 15 min) | Neurotoxicity in Chimney or Rotarod (†) Tests in Mice ([2]; pretreatment time 30 min) | Neurotoxicity in Chimney or Rotarod (†) Tests in Mice ([2]; pretreatment time 60 min) | Neurotoxicity in Chimney or Rotarod (†) Tests in Mice ([2]; pretreatment time 120 min) | Anticonvulsant Activity in MES Test ED50 ± S.E. ([3]; pretreatment time 15 min) [mg/kg] | Anticonvulsant Activity in MES Test ED50 ± S.E. ([3]; pretreatment time 30 min) [mg/kg] | Anticonvulsant Activity in MES Test ED50 ± S.E. ([3]; pretreatment time 60 min) [mg/kg] | Anticonvulsant Activity in MES Test ED50 ± S.E. ([3]; pretreatment time 120 min) [mg/kg] | Anticonvulsant Activity in 6 Hz Test ED50 ± SEM ([4]; pretreatment time 15 min) [mg/kg] | Anticonvulsant Activity in 6 Hz Test ED50 ± SEM ([4]; pretreatment time 30 min) [mg/kg] | Anticonvulsant Activity in 6 Hz Test ED50 ± SEM ([4]; pretreatment time 60 min) [mg/kg] | Anticonvulsant Activity in 6 Hz Test ED50 ± SEM ([4]; pretreatment time 120 min) [mg/kg] | IC50 [5] [µM] | Neurotoxicity in Chimney or Rotarod (†) Tests in Mice ([6]; pretreatment time 15 min) [mg/kg] | Neurotoxicity in Chimney or Rotarod (†) Tests in Mice ([6]; pretreatment time 30 min) [mg/kg] | Neurotoxicity in Chimney or Rotarod (†) Tests in Mice ([6]; pretreatment time 60 min) [mg/kg] | Neurotoxicity in Chimney or Rotarod (†) Tests in Mice ([6]; pretreatment time 120 min) [mg/kg]
Cc1ccc(-n2c(-c3cccc(Cl)c3)n[nH]c2=S)cc1 [TP-10, 5-(3-Chlorophenyl)-4-(4-methylphenyl)-2,4-dihydro-3H-1,2,4-triazole-3-thione] | 40.2 ± 5.1 | 338.1 ± 12.0 | 338.1 ± 14.7 | 333.4 ± 18.6 | 395.1 ± 25.2 | 57.0 ± 9.4 | 74.5 ± 8.1 | 187.1 ± 18.8 | 281.4 ± 13.6 | 62.6 ± 13.2 | 61.1 ± 9.7 | 169.7 ± 18.5 | 167.6 ± 17.4 | – | – | – | – | –
CCCCCCn1c(Cc2cccc(Cl)c2)n[nH]c1=S [TP-427, 5-(3-Chlorobenzyl)-4-hexyl-2,4-dihydro-3H-1,2,4-triazole-3-thione] | 477 ± 39.6 | >1000 | >1000 | 540.7 ± 20.9 | 548.5 ± 21.4 | 72.1 ± 7.0 | 74.5 ± 8.1 | 83.6 ± 3.8 | 97.9 ± 10.9 | 40.9 ± 6.4 | 46.6 ± 8.2 | 51.6 ± 6.9 | 64.9 ± 5.6 | 6.17 ± 1.43 | – | – | – | –
CC(C)Cn1c(Cc2cccc(Cl)c2)n[nH]c1=S [TPR-22, 5-(3-Chlorobenzyl)-4-isobutyl-2,4-dihydro-3H-1,2,4-triazole-3-thione] | 34.4 ± 8.3 | – | – | – | – | 130.4 ± 17.6 | 130.4 ± 17.6 | 159.9 ± 21.9 | 195.7 ± 21.5 | – | – | – | – | 18.9 ± 1.2 | 306 ± 19.8 | 314 ± 22 | 326 ± 23.1 | 330 ± 24.2
CCCC(CCC)C(=O)O [Valproic acid, reference compound] | 15.4 ± 4.71 | – | – | – | – | – | – | – | – | – | – | – | – | – | – | – | – | –

Reference: article PMC8037910, “Effect of Chronic Administration of 5-(3-chlorophenyl)-4-Hexyl-2,4 -Dihydro-3H-1,2,4-Triazole-3-Thione (TP-315)—A New Anticonvulsant Drug Candidate—On Living Organisms” (International Journal of Molecular Sciences, 2021)
